# Data as given in patent publication US20240174985A1, “METHOD FOR PRODUCING OVARIAN SOMATIC CELL-LIKE CELLS, AND METHOD FOR INDUCING DIFFERENTIATION OF PRIMATE PLURIPOTENT STEM CELLS INTO OVARIAN SOMATIC CELL-LIKE CELLS” (Kyoto University, priority 2021, published 2024).
# Like-named read-outs stand apart in the source and are kept apart here.
# How the values were obtained:
# Assay type in all cases: cell-based
# [1] = system: cynomolgus monkey ES cells; conditions: for concentration considered the best in step 2: conclusion at the time of experiment 21; for induction of NR5A1-positive cells: addition in step 1 (BMS493 1 μM), FACS day 14
# [2] = system: cynomolgus monkey ES cells
# Excerpt: In order to conveniently observe the expression of genes represented by each developmental stage, the stop codons of TBXT, OSR1, NR5A1, FOXL2, WT1, and GATA4 were deleted from the cynomolgus monkey female ES15XRi cell strain using a Cas9 nickase and gene targeting, 2A and EGFP (TBXT, NR5A1), tdTomato (OSR1, FOXL2, and WT1), and 2A and mTagBFP2 (GATA4) were inserted, and then a drug-resistant cassette sandwiched between loxP's was knocked in (FIGS. 24A to 24F; and in FIG. 24A to FIG. 24F, “PGK” represents a PGK promoter). Thereafter, the drug-resistant cassette was removed using Cre to manufacture the following five double reporter cell strains. • (1) TBXT-EGFP/OSR1-tdTomato (which may be hereinafter abbreviated as a “TGOT strain”); • (2) NR5A1-EGFP/FOXL2-tdTomato (which may be hereinafter abbreviated as a “NGFT strain”); • (3) a single reporter strain of NR5A1-EGFP (which may be hereinafter abbreviated as an “NG-Puro strain”. This strain has not been subjected to the removal of the drug-resistant cassette by Cre); • (4) a triple reporter strain of WT1-tdTomato/GATA4-mTagBFP2/NR5A1-EGFP (which may be hereinafter abbreviated to as a “WTGBNG strain”); and • (5) WT1-tdTomato/NR5A1-EGFP (which may be hereinafter abbreviated as a “WTNG strain”).
# (§1) The cells at each stage were analyzed using a flow cytometer (BD FACSAria III).
# At the time of induction, the ES cells were cultured on mouse embryonic fibroblasts (MEF), which are feeder cells, treated with a proteolytic enzyme solution (CTK: collagenase, trypsin, and KSR), and then dissociated up to a single-cell level using TrypLEselect. Next, each of 30,000 cells was seeded in a low-adhesive 96-well U-bottom culture plate (hereinafter, step 1 was started by the same method unless otherwise specified). A TGOT No. 25 strain was used as a cell strain. The presence or absence of the ROCK inhibitor (Y-27632) in step 1 was examined. In FIG. 25A, the base medium GK7.5 has a composition of GMEM, 7.5 v/v % KSR, 0.1 mM 2-ME, 0.1 mM non-essential amino acid (NEAA), 1 mM sodium pyruvate, 100 U/mL penicillin/streptomycin, and 2 mM L-glutamine. The induction was performed for a period in step 1 of 2 days and in step 2 of 2 days. In step 2, PD173074 was used instead of PD0325901 used in mice. PD173074 is an inhibitor of FGF, whereas PD0325901 is an MEK inhibitor downstream of the FGF signaling pathway.
# human iPS cells [3] = experiment: Induction of differentiation from human iPS cells into ovarian somatic cell-like cells (FACS of OSR1-tdTomato/NR5A1-EGFP reporters, observation of embryoid bodies)
# Excerpt: In order to conveniently observe the expression of genes typical at each developmental stage, a human iPS cell line 1390G3 was genetically modified, and a DNA sequence that emits red fluorescence (tdTomato) with the expression of the OSR1 gene, green fluorescence (EGFP) with the expression of the NR5A1 gene, and red fluorescence (tdTomato) with the expression of the FOXL2 gene was manufactured (see FIG. 1, and after introduction into the chromosome, a portion of “PGKp-Neo (or Puro)-pA” portion was deleted with Cre). An iPS cell line into which two DNA sequences of OSR1 and NR5A1 had been introduced (which may be hereinafter abbreviated as “OTNG”), and an iPS cell line into which two DNA sequences of NR5A1 and FOXL2 had been introduced (which may be hereinafter abbreviated as “NGFT”) were manufactured. In the present test, the OTNG strain was used in most of the experiments. Furthermore, NR5A1 and SF1 are the same gene.
# as §1
# The ES cells of monkeys and human iPS cells are considered to be similar to EpiLC in a slightly advanced state in terms of differentiation, as compared with mouse ES cells. Therefore, in the examination using monkey or human pluripotent stem cells in the present test, step 0 was omitted and the process was started from step 1. […] For this reason, Y27632 was added to step 1 to perform examination. In addition, a 96-well V-bottom plate was used as a culture plate and the cells were seeded so as to have 10,000 cells per well.
# In a test using human cells, the base medium was changed from GMEM (used in mice) to DMEM including 7.5 v/v % KnockOut (registered trademark) Serum Replacement (KSR). In addition, the base medium includes 0.1 mM 2-mercaptoethanol, 100 U/mL penicillin/streptomycin, and 2 mM GlutaMax (registered trademark), but the additives and concentrations thereof are fixed, and the description following “2.” is omitted. The periods of step 1 and step 2 were set to be the same as those in the mouse protocol, and culture was continued under the condition of step 3. The entire medium was basically changed every two or three days. At the time of subculturing iPS cells, 30,000 cells were seeded on a low-adhesive plate to start the culture as aggregates.
# human iPS cells [4] = experiment: Quantitative PCR of marker genes in cells induced from human iPS cells; conditions: bFGF 5 ng/ml added in step 1; day 15 of induction
# Excerpt: The relative expression level of each marker gene was confirmed using a PCR apparatus (BIO-RAD CFX384 Real-Time System) with the following primers and conditions. In the tables, the PPIA gene and the RPLP0 gene were used as housekeeping genes. The difference in qPCR is a difference from the average value taken as “(PPIA+RPLP0)/2”. In addition, the ERCC gene was used as an absolute control between samples.
# [5] = system: cynomolgus monkey ES cells; experiment: Quantitative PCR of marker genes in cells induced from cynomolgus monkey ES cells; conditions: without BMP4 and with the addition of LDN in step 1
# Protocol: The relative expression level of each marker gene was confirmed using a PCR apparatus (BIO-RAD CFX384 Real-Time System) with the following primers and conditions. In the table, the primers of PAX3, OSR1, PAX2 #3, EMX2 #1, WT1 #2, and LHX9 #2 were used only in the experiment of FIG. 31C, and the primers of OSR1 #10, CXCL12×4, BMP2, and BMP4 were used only for the experiment in FIG. 57C. The GAPDH gene and the PPIA gene were measured as housekeeping genes, and relative values with the average of Ct values of the two genes as a control value are shown in the graph. Although not shown in the graph, ERCC-00096, ERCC-00009, ERCC-00022, and ERCC-00025 were used in combination as a control, except for the experiment of FIG. 31C.
# [6] = added to each condition in step 3 (16 patterns), day 16
# [7] = one cytokine added with EGF in step 3, compared with no cytokine control (CK−), BMP4 1 ng/ml, SHH 30 ng/mL, PD0325901 1 μM, RA 3 μM, day 16
# [8] = one cytokine added with EGF in step 3, compared with no cytokine control (CK−), day 16
# [9] = concentration of LDN increased in step 1 (30, 100, 1,000 nM)
molecule,measurement,setting,value
"CC1=C(/C=C/C(C)=C/C=C/C(C)=C/C(=O)O)C(C)(C)CCC1 [RA, retinoic acid]",concentration of RA in step 2 at which induction efficiency for NR5A1-positive cells was particularly excellent,"[1]; 0, 0.3, 1, 3, 10 μM tested, FACS day 16",≥ 3 µM
same,concentration considered the best in step 2,[1],3 µM
C[C@@H](N)[C@H]1CC[C@H](C(=O)Nc2ccncc2)CC1 [Y-27632],efficiency of forming cell aggregates (embryoid bodies),"[2]; without Y-27632 in step 1, day 2 of induction, TGOT No. 25 strain",significantly low
Cc1c[nH]c(-c2cnc(NCCNc3ccc(C#N)cn3)nc2-c2ccc(Cl)cc2Cl)n1 [CHIR99021],NR5A1-positive cells,"[1]; CHIR 20 μM in step 1, culture until day 17, NGFT No. 69 strain",a number of NR5A1-positive cells were observed
same,concentration of CHIR99021 at which OSR1 can be expressed with high efficiency,"[1]; step 1, at a transition to step 2, FACS days 4 and 6",≥ 14 µM
same,expression of OSR1,"[2]; CHIR 10 μM in step 1, regardless of the concentration of BMP4",confirmed
same,optimum concentration of CHIR for induction of the intermediate mesoderm,[2]; step 1,≥ 10 µM
same,concentration of CHIR99021 at which TBXT can be expressed with high efficiency,"[2]; step 1 of 2 days, FACS day 2, TGOT No. 25 strain",≥ 8 µM
same,proportion of NR5A1-positive cells,human iPS cells [3]; CHIR99021 15 μM as compared to 10 μM in step 1,excellent
O=C(NOC[C@H](O)CO)c1ccc(F)c(F)c1Nc1ccc(I)cc1F [PD0325901],optimum concentration of PD0325901 in step 2,"[1]; FACS day 16, NGFT No. 69 strain",1 µM
same,induction efficiency,"[1]; MEK downstream of FGF inhibited with PD0325901 1 μM in step 3, FACS day 16",higher
same,number of the induced cells,"[1]; PD03 added in step 3, WTGBNG No. 1",reduced
same,induction efficiency,[1]; [6],improved
same,number of induced cells,[1]; [6],decreased
same,induction efficiency,"[1]; addition of PD0325901 in step 3, without addition of SHH, WTGBNG No. 1",the highest
same,concentration considered the best in step 2,[1],1 µM
same,optimum addition period of PD03 in step 3,"[1]; none, 48 hours, 96 hours tested, NG-Puro strain",48 h
same,induction efficiency,[1]; [7],further increased
same,number of induced cells,[1]; [8],decreased
same,size (embryoid bodies) at the end of step 2,"[1]; step 2: PD0325901 3, 1, 0.3, 0 μM or FGF9 20 ng/ml, day 6",improved as the amount of PD0325901 was reduced
same,NR5A1-positive cells,"human iPS cells [3]; PD0325901 not added in step 2, day 15 of induction",not observed at all
same,NR5A1-positive cells,"human iPS cells [3]; PD0325901 weak in step 2 (0.4-1.0 μM tested), day 15",did not appear
same,PD0325901 concentration with the highest differentiation induction efficiency,"human iPS cells [3]; step 2, KSR 7 v/v %, day 15",1.0 µM
bFGF: basic fibroblast growth factor (FGF2),expression of OSR1,"[1]; added in step 1: bFGF 50 ng/mL entire period, Activin A 10 ng/ml one day from day 1, FACS days 2, 4, 6",acted toward enhancing the expression of OSR1
same,NR5A1-positive cells,"[1]; addition of bFGF in step 1, periods 2-2-12 (days), day 16",no significant change
same,NR5A1-positive cell induction efficiency,"[1]; addition of bFGF in step 1, periods 3-3-10 (days), day 16",remarkable improvement
same,improvement of the induction of NR5A1-positive cells,"[1]; bFGF 50 ng/ml and Activin A 10 ng/ml (only from day 1) in step 1, days 14 and 21",not recognized
same,concentration in step 1 at which number and proportion of the positive cells were maximal,"[1]; periods 3-3-10 (days), day 16",5 ng/mL
same,expression of the marker gene of posteriorization,human iPS cells [4],not recognized
same,states of the embryoid bodies,"human iPS cells [3]; added between day 2 and day 4 of induction, step 1 plane culture",poor (dead)
same,differentiation induction efficiency,human iPS cells [3]; bFGF not present in step 1 (versus added),higher
BMP4: bone morphogenetic protein 4,embryoid bodies (size; concern about cytotoxicity),[1],the same tendency was recognized
same,best concentration in step 2 (induction efficiency),"[1]; BMP4 0, 1, 5, 10 and SHH 0, 30, 60, 100 ng/ml tested, FACS day 16",1 ng/mL
same,concentration in step 3 that most induced NR5A1-positive cells,"[1]; BMP4 0, 1, 20, 50 and FGF9 0, 2, 10, 20 ng/ml tested, FACS day 16",1 ng/mL
same,induction efficiency,"[1]; BMP4 not added after step 2 (four-step method), FACS day 16",higher
same,number of induced cells,[1]; [6],decreased only in a case where BMP4 was added to EGF+RA (ER+B)
same,expression of OSR1,"[1]; by the amount of BMP4 added in step 1 (1, 3, 10 ng/ml), CHIR 10 μM",increase
same,concentration considered the best in step 2,[1],1 ng/mL
same,induction efficiency,[1]; [7],reduced
same,number of induced cells,[1]; [8],large
same,concentration in step 1 at which number and proportion of the positive cells were maximal,"[1]; periods 3-3-10 (days), day 16",0 ng/mL
same,expression of OSR1,"[2]; increasing the amount of BMP in step 1, CHIR99021 14 μM or more",enhanced
EGF: epidermal growth factor,concentration considered the best in step 2,[1],50 ng/mL
same,necessity for induction,"[1]; no addition of EGF in step 1 and step 2, FACS day 16, NGFT No. 69",not essential
CNC1CCC(N(Cc2cccc(-c3ccncc3)c2)C(=O)c2sc3ccccc3c2Cl)CC1 (stereo not shown) [SAG],replacement of SHH in step 2,"[1]; SAG 100 nM, FACS day 16",SHH can be replaced with SAG
c1ccc2c(-c3cnn4cc(-c5ccc(N6CCNCC6)cc5)cnc34)ccnc2c1 [LDN193189],induction of NR5A1-positive cells,[1],no particular advantage
same,improvement in the proportion of NR5A1-positive cells,"[1]; addition of LDN in step 1 (30, 100, 1,000 nM), days 14, 17, 21",almost no improvement
same,OSR1 expression at the end point of step 1 (day 2.2),[1]; [9],decreased
same,increase in OSR1 expression in step 2 (days 4 and 6),[1]; [9],became weaker
same,expression of FOXF1,[5],almost disappeared
CC1(C)CC=C(C#Cc2ccccc2)c2cc(/C=C/c3ccc(C(=O)O)cc3)ccc21 [BMS493],OSR1 expression in step 2,"[1]; 1 μM in step 1, FACS days 2, 4, 6",enhancement
same,expression level of SF1-EGFP,[1]; BMS493 1 μM added in step 3,slightly increased
same,induction efficiency of SF1-positive cells,[1]; BMS493 1 μM added in step 3,poor
same,expression level of WT1,"[1]; BMS493 1 μM for 48 hours in step 3, WTGBNG No. 1 strain",slightly decreased
same,induction of NR5A1-positive cells,[1],no particular advantage
